Results: patent US9315458B2, “Nitrogen-containing heterocyclic compound” (Takeda Pharmaceutical Company Limited, priority 2014, dated 2016)

Biological target: T1, human M1 receptor (hCHRM1) (Homo sapiens, UniProt P11229)
T1 construct: expressed in transfected cells
T1 sequence (P11229 1-460): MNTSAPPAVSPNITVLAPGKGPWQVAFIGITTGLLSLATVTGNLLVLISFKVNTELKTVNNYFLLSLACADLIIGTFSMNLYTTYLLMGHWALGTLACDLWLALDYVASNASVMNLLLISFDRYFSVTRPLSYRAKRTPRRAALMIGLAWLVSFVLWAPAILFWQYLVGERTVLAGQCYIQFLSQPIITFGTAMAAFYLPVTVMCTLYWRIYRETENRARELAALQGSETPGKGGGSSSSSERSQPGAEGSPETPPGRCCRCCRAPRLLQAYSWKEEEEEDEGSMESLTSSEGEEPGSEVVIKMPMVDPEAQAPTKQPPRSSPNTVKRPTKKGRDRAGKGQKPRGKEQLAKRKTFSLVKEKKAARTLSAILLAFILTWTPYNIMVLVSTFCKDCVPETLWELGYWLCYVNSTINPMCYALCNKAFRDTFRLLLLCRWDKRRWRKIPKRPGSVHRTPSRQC
Assay: Measurement of M1 receptor positive allosteric modulator (M1PAM) activity, calcium fluorescence (FLIPRtetra) with acetylcholine at EC20
Assay type: cell-based
Details: for activity (%) at 10 μM: 10 μM test compound, 100% = acetylcholine 1 μM, 0% = DMSO, acetylcholine at EC20; for EC50: inflection point of concentration-dependent curve, CHO-K1 cells expressing hCHRM1, acetylcholine at EC20 (final 0.6-0.8 nM), read-out: IP value
Protocol: The activity of a test compound in the presence of acetylcholine at EC20 concentration (final concentration 0.6-0.8 nM), which affords an action corresponding to about 20% of the maximum activity, was measured as PAM activity. The method is as follows. CHO-K1 cells stably expressing a human M1 receptor (hCHRM1) were plated on a 384-well black clear bottom plate (BD Falcon) at 5,000 cells/well, and cultured in an incubator at 37° C., 5% CO2 for 1 day. The medium in the cell plate was removed, and assay buffer A (Recording medium (DOJINDO LABORATORIES), 0.1% BSA (Wako Pure Chemical Industries, Ltd.), 2.5 μg/mL Fluo-4 AM (DOJINDO LABORATORIES), 0.08% Pluronic F127 (DOJINDO LABORATORIES), 1.25 mM probenecid (DOJINDO LABORATORIES)) containing a calcium indicator was added at 30 μL/well. The cells were left standing in the incubator at 37° C., 5% CO2 for 30 min, and further left standing at room temperature for 30 min. A test compound prepared by diluting with assay buffer B (HBSS (Invitrogen), 20 mM HEPES (Invitrogen), 0.1% BSA) containing 2.4-3.2 nM acetylcholine was added at 10 μL/well, and the fluorescence was measured by FLIPRtetra (Molecular Devices) for 1 min every 1 second. With the definition that the amount of change in the fluorescence on addition of acetylcholine (final concentration 1 μM) is 100% and that on addition of DMSO instead of a test compound is 0%, the activity (%) of the test compound was calculated, and the inflection point in the concentration-dependent curve of the test compound was calculated as IP values.

Compound	activity (%) at 10 μM [%]	EC50 [nM]
Cc1c(Cc2ccc(-c3ccn(C)n3)cc2)cc2c(c1C)CN(CC1CCCO1)C2=O (centres unmarked) [Example 85, 4,5-dimethyl-6-(4-(1-methyl-1H-pyrazol-3-yl)benzyl)-2-(tetrahydrofuran-2-ylmethyl)isoindolin-1-one]	105	41
Cc1c(Cc2ccc(C#N)cc2F)cc2c(c1C)CN([C@H]1CCC[C@@H]1O)C2=O [Example 125, 3-fluoro-4-((2-((1S,2S)-2-hydroxycyclopentyl)-6,7-dimethyl-3-oxo-2,3-dihydro-1H-isoindol-5-yl)benzyl)benzonitrile]	93	73
Cc1cc(-c2ccc(Cc3cc4c(cc3C)CN([C@H]3CCC[C@@H]3O)C4=O)cc2)ccn1 (racemic) [Example 100, rac-2-(trans-2-hydroxycyclopentyl)-5-methyl-6-(4-(2-methylpyridin-4-yl)benzyl)isoindolin-1-one]	101	94
Cc1c(Cc2ccc(-c3cn(C)nn3)cc2)cc2c(c1C)CN(C[C@H]1CCCO1)C2=O [Example 110, 4,5-dimethyl-6-(4-(1-methyl-1H-1,2,3-triazol-4-yl)benzyl)-2-((2R)-tetrahydrofuran-2-ylmethyl)isoindolin-1-one]	77	24
Cc1cc2c(cc1Cc1ccc(-n3cccn3)cc1)C(=O)N(C1CCOCC1)C2 [Example 8, 5-methyl-6-(4-(1H-pyrazol-1-yl)benzyl)-2-(tetrahydro-2H-pyran-4-yl)isoindolin-1-one]	90	290
CCc1ccc(Cc2cc3c(c(C)c2C)CN([C@H]2CCCC[C@@H]2O)C3=O)cn1 [Example 149, 6-((6-ethylpyridin-3-yl)methyl)-2-((1S,2S)-2-hydroxycyclohexyl)-4,5-dimethylisoindolin-1-one]	99	16
COc1cc(Cc2cc3c(c(C)c2C)CN([C@H]2COCC[C@@H]2O)C3=O)ccc1F [Example 23, 1,5-anhydro-2,4-dideoxy-2-(6-(4-fluoro-3-methoxybenzyl)-4,5-dimethyl-1-oxo-1,3-dihydro-2H-isoindol-2-yl)-L-threo-pentitol]	100	46
COc1ccc(Cc2cc3c(c(F)c2OC)CN([C@H]2COCC[C@@H]2O)C3=O)cc1 [Example 157]	97	84
COc1ccc(Cc2cc3c(cc2C)CN([C@H]2COCC[C@@H]2O)C3=O)cc1 [Example 164, 2-[(3S,4S)-4-hydroxytetrahydro-2H-pyran-3-yl]-6-(4-methoxybenzyl)-5-methyl-2,3-dihydro-1H-isoindol-1-one]	102	62
CCc1cc2c(cc1Cc1ccc(-n3cccn3)cc1)C(=O)N([C@H]1CCC[C@@H]1O)C2 (racemic) [Example 59, rac-5-ethyl-2-(trans-2-hydroxycyclopentyl)-6-(4-(1H-pyrazol-1-yl)benzyl)isoindolin-1-one]	100	34
COc1ccc(Cc2cc3c(c(C)c2C)CN([C@H]2COCC[C@@H]2O)C3=O)cc1C [Example 160, 2-[(3S,4S)-4-hydroxytetrahydro-2H-pyran-3-yl]-6-(4-methoxy-3-methylbenzyl)-4,5-dimethyl-2,3-dihydro-1H-isoindol-1-one]	112	47
Cc1c(Cc2ccc(-n3cccn3)cc2)cc2c(c1F)CN(CC(C)(C)O)C2=O [Example 127, 4-fluoro-2-(2-hydroxy-2-methylpropyl)-5-methyl-6-(4-(1H-pyrazol-1-yl)benzyl)isoindolin-1-one]	104	59
O=C1c2cc(Cc3ccc(-n4cccn4)cc3)c(C3CC3)cc2CN1CC1CCCO1 (centres unmarked) [Example 62, 5-cyclopropyl-6-(4-(1H-pyrazol-1-yl)benzyl)-2-(tetrahydrofuran-2-ylmethyl)isoindolin-1-one]	103	95
COc1ccc(Cc2cc3c(c(C)c2C)CN([C@H]2COCC[C@@H]2O)C3=O)c(F)c1 [Example 163, 6-(2-fluoro-4-methoxybenzyl)-2-[(3S,4S)-4-hydroxytetrahydro-2H-pyran-3-yl]-4,5-dimethyl-2,3-dihydro-1H-isoindol-1-one]	108	51
Cc1cc(-c2ccc(Cc3cc4c(cc3C)CN([C@H]3CCC[C@@H]3O)C4=O)cn2)ccn1 (racemic) [Example 41, rac-2-(trans-2-hydroxycyclopentyl)-5-methyl-6-((2′-methyl-2,4′-bipyridin-5-yl)methyl)isoindolin-1-one]	97	30
COc1ccc(Cc2cc3c(c(C)c2C)CN([C@H]2COCC[C@@H]2O)C3=O)cc1 (racemic) [Example 165, rac-2-(trans-4-hydroxytetrahydro-2H-pyran-3-yl)-6-(4-methoxybenzyl)-4,5-dimethyl-2,3-dihydro-1H-isoindol-1-one]	103	36

Now those with a lower EC50, led by results:

activity (%) at 10 μM [%]	EC50 [nM]	Compound
94	5.6	Cc1c(Cc2ccc(-n3cccn3)cc2)cc2c(c1Cl)CN([C@H]1CCCC[C@@H]1O)C2=O (racemic) [Example 93, rac-4-chloro-2-(trans-2-hydroxycyclohexyl)-5-methyl-6-(4-(1H-pyrazol-1-yl)benzyl)isoindolin-1-one]
100	7.1	Cc1c(Cc2ccc(C#N)cc2)cc2c(c1C)CN([C@H]1CCCC[C@@H]1O)C2=O [Example 155, 4-((2-((1S,2S)-2-hydroxycyclohexyl)-6,7-dimethyl-3-oxo-2,3-dihydro-1H-isoindol-5-yl)methyl)benzonitrile]
97	5	CCc1cc2c(cc1Cc1ccc(-n3cccn3)cc1)C(=O)N([C@H]1COCC[C@@H]1O)C2 [Example 128, 5-ethyl-2-[(3S,4S)-4-hydroxytetrahydro-2H-pyran-3-yl]-6-[4-(1H-pyrazol-1-yl)benzyl]-2,3-dihydro-1H-isoindol-1-one]
105	13	Cc1c(C#N)c(Cc2ccc(-n3cccn3)cc2)cc2c1CN([C@H]1CCCC[C@@H]1O)C2=O (racemic) [Example 11, rac-2-(trans-2-hydroxycyclohexyl)-4-methyl-1-oxo-6-(4-(1H-pyrazol-1-yl)benzyl)isoindoline-5-carbonitrile]
96	15	Cc1c(Cc2ccc(-c3ccn(C)n3)cc2)cc2c(c1C)CN(CC(C)(C)O)C2=O [Example 114, 2-(2-hydroxy-2-methylpropyl)-4,5-dimethyl-6-(4-(1-methyl-1H-pyrazol-3-yl)benzyl)isoindolin-1-one]
88	4.3	COc1ccc(Cc2cc3c(c(Cl)c2C)CN([C@H]2COCC[C@@H]2O)C3=O)cc1 [Example 24, 1,5-anhydro-2-(4-chloro-6-(4-methoxybenzyl)-5-methyl-1-oxo-1,3-dihydro-2H-isoindol-2-yl)-2,4-dideoxy-L-threo-pentitol]
100	12	Cc1c(Cc2ccc(-n3cccn3)cc2)cc2c(c1Cl)CN([C@H]1CCC[C@@H]1O)C2=O [Example 131, 4-chloro-2-((1S,2S)-2-hydroxycyclopentyl)-5-methyl-6-(4-(1H-pyrazol-1-yl)benzyl)isoindolin-1-one]
87	7.3	Cc1c(Cc2ccc(-n3cccn3)cc2)cc2c(c1Cl)CN(CC(C)(C)O)C2=O [Example 132, 4-chloro-2-(2-hydroxy-2-methylpropyl)-5-methyl-6-(4-(1H-pyrazol-1-yl)benzyl)isoindolin-1-one]
92	13	Cc1c(Cc2ccc(-c3ccn(C)n3)cc2)cc2c(c1C)CN([C@H]1CCC[C@@H]1O)C2=O (racemic) [Example 83, rac-2-(trans-2-hydroxycyclopentyl)-4,5-dimethyl-6-(4-(1-methyl-1H-pyrazol-3-yl)benzyl)isoindolin-1-one]
